Measurements from patent US9932637B2, “Genetic polymorphisms associated with cardiovascular disorders and drug response, methods of detection and uses thereof” (CELERA CORPORATION, priority 2003, dated 2018).

Tested on: patients with prior myocardial infarction (CARE study)
Assay: CARE: association of SNPs with pravastatin treatment in cardiovascular events prevention (logistic regression, odds ratio pravastatin vs placebo by genotype; Table 8)
Format: in vivo, human
Details: for Definite Nonfatal MI, n/total (%) / Fatal/Nonfatal MI (def & prob), n/total (%) / MI (Fatal/Nonfatal), n/total (%) / Nonfatal MI (def & prob), n/total (%): BCL2A1 hCV7509650, All Patients
Excerpt: In order to identify genetic markers associated with acute coronary events (e.g. MI, stroke, unstable angina, congestive heart failure, etc.) or response to statin treatment for the prevention of coronary events, samples from the Cholesterol and Recurrent Events (CARE) study (a randomized multicentral double-blinded trial on secondary prevention of acute coronary events with pravastatin) (Sacks et al., 1991, Am. J. Cardiol. 68: 1436-1446) were genotyped. A well-documented myocardial infarction (MI) was one of the enrollment criteria for entry into the CARE study. Patients were enrolled in the CARE trial from 80 participating study centers. […] Patients were randomized to receive either 40 mg of pravastatin once daily or a matching placebo. The primary endpoint of the trial was death from coronary heart disease and the median duration of follow-up was 5.0 years (range, 4.0 to 6.2 years). […] Secondary endpoints of other related cardiovascular or metabolic disease events, and changes in clinical variables were also recorded in pravastatin-treated and placebo groups. All individuals included in the study had signed a written informed consent form and the study protocol was approved by the respective Institutional Review Boards (IRBs).
For genotyping SNPs in CARE patient samples, DNA was extracted from blood samples using conventional DNA extraction methods such as the QIA-amp kit from Qiagen. Genotypes were obtained on an ABI PRISM® 7900HT Sequence Detection PCR system (Applied Biosystems, Foster City, Calif.) by kinetic allele-specific PCR, similar to the method described by Germer et al. (Germer S., Holland M. J., Higuchi R. 2000, Genome Res. 10: 258-266).
Statistical analysis for association of SNPs with pravastatin treatment in cardiovascular events prevention (Table 8) was carried out using an overall logistic regression model that included an intercept, a parameter for the effect of a genotype containing two rare alleles versus a genotype containing no rare alleles, a parameter for the effect of a genotype containing one rare allele versus a genotype containing no rare alleles, a parameter for the effect of use of pravastatin versus the use of placebo, and parameters for the interaction effects between SNP genotypes and pravastatin use. The test of the overall model is a chi-square test with two degrees of freedom for analyses containing all three genotypes, and one degree of freedom for analyses containing two genotypes.
Effect sizes were estimated through odds ratios (pravastatin group versus placebo) for carriers of each genotype (groups of 0, 1, and 2 minor allele carriers). The effect was considered to be significant if p-value for testing whether any of the interactions between SNP genotypes and pravastatin use were <0.05. […] Odds ratios less than one indicate that the specific SNP allele has a protective effect and odds ratios greater than one indicate that the specific SNP allele has an adverse effect.

[1] = CCL4 hCV12120554, All Patients, 0 Rare Alleles, Prava arm
[2] = CCL4 hCV12120554, All Patients, 1 Rare Allele, Prava arm

## CC[C@H](C)C(=O)O[C@H]1C[C@H](O)C=C2C=C[C@H](C)[C@H](CC[C@@H](O)C[C@@H](O)CC(=O)O)[C@H]21 [pravastatin]
APOE hCV905013, All Patients, Nonfatal MI (Probable/Definite), 1 rare allele
  Odds ratio pravastatin vs placebo: 0.91
APOE hCV905013, All Patients, Nonfatal MI (Probable/Definite), 2 rare alleles
  Odds ratio pravastatin vs placebo: 0.49
0 Rare Alleles, Prava arm
  Definite Nonfatal MI, n/total (%): (6.3%)
  Fatal/Nonfatal MI (def & prob), n/total (%): (8.7%)
  MI (Fatal/Nonfatal), n/total (%): (9.1%)
  Nonfatal MI (def & prob), n/total (%): (8.1%)
1 Rare Allele, Prava arm
  Definite Nonfatal MI, n/total (%): (7.9%)
  Fatal/Nonfatal MI (def & prob), n/total (%): (11.4%)
  MI (Fatal/Nonfatal), n/total (%): (11.4%)
  Nonfatal MI (def & prob), n/total (%): (10.2%)
2 Rare Alleles, Prava arm
  Definite Nonfatal MI, n/total (%): (3.9%)
  Fatal/Nonfatal MI (def & prob), n/total (%): (6.9%)
  MI (Fatal/Nonfatal), n/total (%): (6.9%)
  Nonfatal MI (def & prob), n/total (%): (6.9%)
BCL2A1 hCV7509650, All Patients, Definite Nonfatal MI, 0 rare alleles
  Odds ratio pravastatin vs placebo: 0.55
BCL2A1 hCV7509650, All Patients, Definite Nonfatal MI, 1 rare allele
  Odds ratio pravastatin vs placebo: 1.09
BCL2A1 hCV7509650, All Patients, Definite Nonfatal MI, 2 rare alleles
  Odds ratio pravastatin vs placebo: 0.35
BCL2A1 hCV7509650, All Patients, Fatal/Nonfatal MI (def & prob), 0 rare alleles
  Odds ratio pravastatin vs placebo: 0.51
BCL2A1 hCV7509650, All Patients, Fatal/Nonfatal MI (def & prob), 1 rare allele
  Odds ratio pravastatin vs placebo: 1.00
BCL2A1 hCV7509650, All Patients, Fatal/Nonfatal MI (def & prob), 2 rare alleles
  Odds ratio pravastatin vs placebo: 0.46
BCL2A1 hCV7509650, All Patients, MI (Fatal/Nonfatal), 0 rare alleles
  Odds ratio pravastatin vs placebo: 0.53
BCL2A1 hCV7509650, All Patients, MI (Fatal/Nonfatal), 1 rare allele
  Odds ratio pravastatin vs placebo: 0.99
BCL2A1 hCV7509650, All Patients, MI (Fatal/Nonfatal), 2 rare alleles
  Odds ratio pravastatin vs placebo: 0.46
BCL2A1 hCV7509650, All Patients, Nonfatal MI (def & prob), 0 rare alleles
  Odds ratio pravastatin vs placebo: 0.52
BCL2A1 hCV7509650, All Patients, Nonfatal MI (def & prob), 1 rare allele
  Odds ratio pravastatin vs placebo: 1.09
BCL2A1 hCV7509650, All Patients, Nonfatal MI (def & prob), 2 rare alleles
  Odds ratio pravastatin vs placebo: 0.56
[1]
  Cardiovascular Mortality, n/total (%): (4.0%)
  Fatal Atherosclerotic Cardiovascular Disease, n/total (%): (4.0%)
  Fatal Coronary Heart Disease, n/total (%): (3.5%)
  Fatal/Nonfatal Atherosclerotic CV Disease, n/total (%): (34.4%)
  Total Coronary Heart Disease Events, n/total (%): (30.5%)
  Total Mortality, n/total (%): (6.0%)
[2]
  Cardiovascular Mortality, n/total (%): (2.5%)
  Fatal Atherosclerotic Cardiovascular Disease, n/total (%): (2.2%)
  Fatal Coronary Heart Disease, n/total (%): (2.2%)
  Fatal/Nonfatal Atherosclerotic CV Disease, n/total (%): (29.9%)
  Total Coronary Heart Disease Events, n/total (%): (25.1%)
  Total Mortality, n/total (%): (4.0%)
CCL4 hCV12120554, All Patients, Cardiovascular Mortality, 0 rare alleles
  Odds ratio pravastatin vs placebo: 1.30
CCL4 hCV12120554, All Patients, Cardiovascular Mortality, 1 rare allele
  Odds ratio pravastatin vs placebo: 0.31
CCL4 hCV12120554, All Patients, Fatal Atherosclerotic Cardiovascular Disease, 0 rare alleles
  Odds ratio pravastatin vs placebo: 1.30
CCL4 hCV12120554, All Patients, Fatal Atherosclerotic Cardiovascular Disease, 1 rare allele
  Odds ratio pravastatin vs placebo: 0.28
CCL4 hCV12120554, All Patients, Fatal Coronary Heart Disease, 0 rare alleles
  Odds ratio pravastatin vs placebo: 1.28
CCL4 hCV12120554, All Patients, Fatal Coronary Heart Disease, 1 rare allele
  Odds ratio pravastatin vs placebo: 0.31
CCL4 hCV12120554, All Patients, Fatal/Nonfatal Atherosclerotic CV Disease, 0 rare alleles
  Odds ratio pravastatin vs placebo: 0.86
CCL4 hCV12120554, All Patients, Fatal/Nonfatal Atherosclerotic CV Disease, 1 rare allele
  Odds ratio pravastatin vs placebo: 0.55
CCL4 hCV12120554, All Patients, Total Coronary Heart Disease Events, 0 rare alleles
  Odds ratio pravastatin vs placebo: 0.87
CCL4 hCV12120554, All Patients, Total Coronary Heart Disease Events, 1 rare allele
  Odds ratio pravastatin vs placebo: 0.55
CCL4 hCV12120554, All Patients, Total Mortality, 0 rare alleles
  Odds ratio pravastatin vs placebo: 1.17
CCL4 hCV12120554, All Patients, Total Mortality, 1 rare allele
  Odds ratio pravastatin vs placebo: 0.40
CCL11 hCV7449808, All Patients, 0 Rare Alleles, Prava, n/total 310/1025
  Total Coronary Heart Disease Events, n/total (%): (30.2%)
CCL11 hCV7449808, All Patients, 0 Rare Alleles, Prava, n/total 359/1025
  Fatal/Non-fatal Atherosclerotic CV Disease, n/total (%): (35.0%)
CCL11 hCV7449808, All Patients, 0 Rare Alleles, Prava, n/total 423/1025
  Hosp. for Cardiovascular Disease, n/total (%): (41.3%)
CCL11 hCV7449808, All Patients, 0 Rare Alleles, Prava, n/total 436/1025
  Total Cardiovascular Disease Events, n/total (%): (42.5%)
CCL11 hCV7449808, All Patients, 1 Rare Allele, Prava, n/total 127/448
  Total Coronary Heart Disease Events, n/total (%): (28.3%)
CCL11 hCV7449808, All Patients, 1 Rare Allele, Prava, n/total 139/448
  Fatal/Non-fatal Atherosclerotic CV Disease, n/total (%): (31.0%)
CCL11 hCV7449808, All Patients, 1 Rare Allele, Prava, n/total 176/448
  Hosp. for Cardiovascular Disease, n/total (%): (39.3%)
CCL11 hCV7449808, All Patients, 1 Rare Allele, Prava, n/total 181/448
  Total Cardiovascular Disease Events, n/total (%): (40.4%)
